Measurements as given in patent US7745636B2, “Hepatitis C virus inhibitors” (Bristol-Myers Squibb Company, priority 2006, dated 2010).

Test system: HCV 1b-377-neo replicon cells
Assay: HCV Replicon assay, HCV 1b-377-neo replicon cells
Format: cell-based, HCV 1b genotype
Conditions: Hepatitis C virus, Table 2, read-out: Range (EC50 against HCV 1b)
Method: An HCV Replicon assay was utilized in the present disclosure, and was prepared, conducted and validated as described in commonly owned PCT/US2006/022197 and in O'Boyle et. al. Antimicrob Agents Chemother. 2005 April; 49(4):1346-53.
HCV 1b-377-neo replicon cells were used to test the currently described compound series as well as cells resistant to compound A due to a Y2065H mutation in NS5A (described in application PCT/US2006/022197). The compounds tested were determined to have more than 10-fold less inhibitory activity on cells resistant to compound A than wild-type cells indicating a related mechanism of action between the two compound series. Thus, the compounds of the present disclosure can be effective to inhibit the function of the HCV NS5A protein and are understood to be as effective in combinations as previously described in application PCT/US2006/022197 and commonly owned WO/O4014852. Further, the compounds of the present disclosure can be effective against the HCV 1b genotype. It should also be understood that the compounds of the present disclosure can inhibit multiple genotypes of HCV. […] In one embodiment compounds of the present disclosure are active against the 1a, 1b, 2a, 2b, 3a, 4a, and 5a genotypes.

Q: CN(C)[C@@H](C(=O)N1CCC[C@H]1c1ncc(-c2ccc(-c3ncc(-c4cnc([C@@H]5CCCN5C(=O)[C@@H](c5ccccc5)N(C)C)[nH]4)cn3)cc2)[nH]1)c1ccccc1 [Example 152j-1, (1R)-2-((2S)-2-(5-(2-(4-(2-((2S)-1-((2R)-2-(dimethylamino)-2-phenylacetyl)-2-pyrrolidinyl)-1H-imidazol-5-yl)phenyl)-5-pyrimidinyl)-1H-imidazol-2-yl)-1-pyrrolidinyl)-N,N-dimethyl-2-oxo-1-phenylethanamine] was tested. Which EC50 did it give?
A: Its EC50 is 1 to 99 nM.

Q: COC(=O)N[C@@H](C(=O)N1CCC[C@H]1c1ncc(-c2ccc(-c3ncc(-c4cnc([C@@H]5CCCN5C(=O)[C@H](NC(=O)OC)c5ccccc5)[nH]4)cn3)cc2)[nH]1)c1ccccc1 [Example 152j-2, methyl ((1R)-2-((2S)-2-(5-(2-(4-(2-((2S)-1-((2R)-2-((methoxycarbonyl)amino)-2-phenylacetyl)-2-pyrrolidinyl)-1H-imidazol-5-yl)phenyl)-5-pyrimidinyl)-1H-imidazol-2-yl)-1-pyrrolidinyl)-2-oxo-1-phenylethyl)carbamate] was tested. Which EC50 did it give?
A: The EC50 was 0.001 to 0.999 nM.

Q: Which EC50 does the source give for COC(=O)N[C@@H](C(=O)N1CCC[C@H]1c1ncc(-c2ccc(-c3ncc(-c4cnc([C@@H]5CCCN5C(=O)Cc5cccnc5)[nH]4)cn3)cc2)[nH]1)c1ccccc1 [Example 152j-3, methyl ((1R)-2-oxo-1-phenyl-2-((2S)-2-(5-(4-(5-(2-((2S)-1-(3-pyridinylacetyl)-2-pyrrolidinyl)-1H-imidazol-5-yl)-2-pyrimidinyl)phenyl)-1H-imidazol-2-yl)-1-pyrrolidinyl)ethyl)car bamate] here?
A: The EC50 was 0.001 to 0.999 nM.

Q: Which EC50 does the source give for O=C([C@@H](c1ccccc1)N1CCCCC1)N1CCC[C@H]1c1ncc(-c2ccc(-c3ncc(-c4cnc([C@@H]5CCCN5C(=O)[C@@H](c5ccccc5)N5CCCCC5)[nH]4)cn3)cc2)[nH]1 [Example 152j-5, 5-(2-((2S)-1-((2R)-2-phenyl-2-(1-piperidinyl)acetyl)-2-pyrrolidinyl)-1H-imidazol-5-yl)-2-(4-(2-((2S)-1-((2R)-2-phenyl-2-(1-piperidinyl)acetyl)-2-pyrrolidinyl)-1H-imidazol-4-yl)phenyl)pyrimidine] here?
A: Its EC50 is 0.001 to 0.999 nM.

Q: C[C@@H](c1ncc(-c2ccc(-c3ncc(-c4cnc([C@@H]5CCCN5C(=O)[C@@H](c5ccccc5)N5CCCCC5)[nH]4)cn3)cc2)[nH]1)N(C)C(=O)[C@@H](c1ccccc1)N1CCCCC1 [Example 152j-6, (2R)-N-methyl-2-phenyl-N-((1S)-1-(4-(4-(5-(2-((2S)-1-((2R)-2-phenyl-2-(1-piperidinyl)acetyl)-2-pyrrolidinyl)-1H-imidazol-5-yl)-2-pyrimidinyl)phenyl)-1H-imidazol-2-yl)ethyl)-2-(1-piperidinyl)acetamide] was tested. Which EC50 did it give?
A: Its EC50 is 0.001 to 0.999 nM.

Q: For CN(C)[C@@H](C(=O)N1CCC[C@H]1c1ncc(-c2ccc(-c3cnc(-c4cnc([C@@H]5CCCN5C(=O)[C@@H](c5ccccc5)N(C)C)[nH]4)cn3)cc2)[nH]1)c1ccccc1 [Example 152j-7, (1R)-2-((2S)-2-(5-(5-(4-(2-((2S)-1-((2R)-2-(dimethylamino)-2-phenylacetyl)-2-pyrrolidinyl)-1H-imidazol-5-yl)phenyl)-2-pyrazinyl)-1H-imidazol-2-yl)-1-pyrrolidinyl)-N,N-dimethyl-2-oxo-1-phenylethanamine], which EC50 is on record?
A: The EC50 was 1 to 99 nM.

Q: With COC(=O)N[C@@H](C(=O)N1CCC[C@H]1c1ncc(-c2ccc(-c3cnc(-c4cnc([C@@H]5CCCN5C(=O)[C@H](NC(=O)OC)c5ccccc5)[nH]4)cn3)cc2)[nH]1)c1ccccc1 [Example 152j-8, methyl ((1R)-2-((2S)-2-(5-(5-(4-(2-((2S)-1-((2R)-2-((methoxycarbonyl)amino)-2-phenylacetyl)-2-pyrrolidinyl)-1H-imidazol-5-yl)phenyl)-2-pyrazinyl)-1H-imidazol-2-yl)-1-pyrrolidinyl)-2-oxo-1-phenylethyl)carbamate] as the compound, how does the EC50 read?
A: The EC50 was 0.001 to 0.999 nM.

Q: CN(C)[C@@H](C(=O)N1CCC[C@H]1c1ncc(-c2ccc(-c3ccc(-c4cnc([C@@H]5CCCN5C(=O)[C@@H](c5ccccc5)N(C)C)[nH]4)nn3)cc2)[nH]1)c1ccccc1 [Example 152j-9, (1R)-2-((2S)-2-(5-(6-(4-(2-((2S)-1-((2R)-2-(dimethylamino)-2-phenylacetyl)-2-pyrrolidinyl)-1H-imidazol-5-yl)phenyl)-3-pyridazinyl)-1H-imidazol-2-yl)-1-pyrrolidinyl)-N,N-dimethyl-2-oxo-1-phenylethanamine] was tested. Which EC50 did it give?
A: The EC50 was 1 to 99 nM.

Q: Which EC50 does the source give for COC(=O)N[C@@H](C(=O)N1CCC[C@H]1c1ncc(-c2ccc(-c3ccc(-c4cnc([C@@H]5CCCN5C(=O)[C@H](NC(=O)OC)c5ccccc5)[nH]4)nn3)cc2)[nH]1)c1ccccc1 [Example 152j-10, methyl ((1R)-2-((2S)-2-(5-(6-(4-(2-((2S)-1-((2R)-2-((methoxycarbonyl)amino)-2-phenylacetyl)-2-pyrrolidinyl)-1H-imidazol-5-yl)phenyl)-3-pyridazinyl)-1H-imidazol-2-yl)-1-pyrrolidinyl)-2-oxo-1-phenylethyl)carbamate] here?
A: Its EC50 is 1 to 99 nM.

Q: Which EC50 does the source give for C[C@H](NC(=O)[C@@H](c1ccccc1)N(C)C)c1ncc(-c2ccc(-c3ccc(-c4cnc([C@@H]5CCCN5C(=O)[C@@H](c5ccccc5)N(C)C)[nH]4)cn3)cc2)[nH]1 [Example 152j-11, (2R)-2-(dimethylamino)-N-((1S)-1-(5-(4-(5-(2-((2S)-1-((2R)-2-(dimethylamino)-2-phenylacetyl)-2-pyrrolidinyl)-1H-imidazol-5-yl)-2-pyridinyl)phenyl)-1H-imidazol-2-yl)ethyl)-2-phenylacetamide] here?
A: Its EC50 is 0.001 to 0.999 nM.

Q: How did the EC50 turn out when COC(=O)N[C@@H](C(=O)N[C@@H](C)c1ncc(-c2ccc(-c3ccc(-c4cnc([C@@H]5CCCN5C(=O)[C@H](NC(=O)OC)c5ccccc5)[nH]4)cn3)cc2)[nH]1)c1ccccc1 [Example 152j-12, methyl ((1R)-2-((2S)-2-(5-(6-(4-(2-((1S)-1-(((2R)-2-((methoxycarobnyl)amino)-2-phenylace-tyl)amino)eth-yl)-1H-imidazol-5-yl)phenyl)-3-pyridinyl)-1H-imidazol-2-yl)-1-pyrrolidinyl)-2-oxo-1-phenylethyl)carbamate] was run?
A: Its EC50 is 0.001 to 0.999 nM.

Q: Which EC50 does the source give for C[C@H](NC(=O)[C@@H](c1ccccc1)N(C)C)c1ncc(-c2ccc(-c3ccc(-c4cnc([C@@H]5CCCN5C(=O)[C@@H](c5ccccc5)N(C)C)[nH]4)nn3)cc2)[nH]1 [Example 152j-13, (2R)-2-(dimethylamino)-N-((1S)-1-(5-(4-(6-(2-((2S)-1-((2R)-2-(dimethylamino)-2-phenylacetyl)-2-pyrrolidinyl)-1H-imidazol-5-yl)-3-pyridazinyl)phenyl)-1H-imidazol-2-yl)ethyl)-2-phenylacetamide] here?
A: Its EC50 is 1 to 99 nM.

Q: For COC(=O)N[C@@H](C(=O)N[C@@H](C)c1ncc(-c2ccc(-c3ccc(-c4cnc([C@@H]5CCCN5C(=O)[C@H](NC(=O)OC)c5ccccc5)[nH]4)nn3)cc2)[nH]1)c1ccccc1 [Example 152j-14, methyl ((1R)-2-((2S)-2-(5-(6-(4-(2-((1S)-1-(((2R)-2-((methoxycarobnyl)amino)-2-phenylace-tyl)amino)eth-yl)-1H-imidazol-5-yl)phenyl)-3-pyridazinyl)-1H-imidazol-2-yl)-1-pyrrolidinyl)-2-oxo-1-phenylethyl)carbamate], which EC50 is on record?
A: Its EC50 is 1 to 99 nM.

Q: How did the EC50 turn out when COC(=O)N[C@@H](C(=O)N[C@@H](C)c1ncc(-c2ccc(-c3ncc(-c4cnc([C@@H]5CCCN5C(=O)[C@H](NC(=O)OC)c5ccccc5)[nH]4)cn3)cc2)[nH]1)c1ccccc1 [Example 152j-15, methyl ((1R)-2-((2S)-2-(5-(2-(4-(2-((1S)-1-(((2R)-2-((methoxycarbonyl)amino)-2-phenylace-tyl)amino)eth-yl)-1H-imidazol-5-yl)phenyl)-5-pyrimidinyl)-1H-imidazol-2-yl)-1-pyrrolidinyl)-2-oxo-1-phenylethyl)carbamate] was run?
A: Its EC50 is 0.001 to 0.999 nM.

Q: For C[C@H](NC(=O)[C@@H](c1ccccc1)N(C)C)c1ncc(-c2cnc(-c3ccc(-c4cnc([C@@H]5CCCN5C(=O)[C@@H](c5ccccc5)N(C)C)[nH]4)cc3)nc2)[nH]1 [Example 152j-16, (2R)-2-(dimethylamino)-N-((1S)-1-(5-(2-(4-(2-((2S)-1-((2R)-2-(dimethylamino)-2-phenylacetyl)-2-pyrrolidinyl)-1H-imidazol-5-yl)phenyl)-5-pyrimidinyl)-1H-imidazol-2-yl)ethyl)-2-phenylacetamide], which EC50 is on record?
A: The EC50 was 0.001 to 0.999 nM.

Q: For COC(=O)N[C@@H](C(=O)N[C@@H](C)c1ncc(-c2cnc(-c3ccc(-c4cnc([C@@H]5CCCN5C(=O)[C@H](NC(=O)OC)c5ccccc5)[nH]4)cc3)nc2)[nH]1)c1ccccc1 [Example 152j-17, methyl ((1R)-2-((2S)-2-(5-(4-(5-(2-((1S)-1-(((2R)-2-((methoxycarbonyl)amino)-2-phenylace-tyl)amino)eth-yl)-1H-imidazol-5-yl)-2-pyrimidinyl)phenyl)-1H-imidazol-2-yl)-1-pyrrolidinyl)-2-oxo-1-phenylethyl)carbamate], which EC50 is on record?
A: The EC50 was 0.001 to 0.999 nM.

Q: For C[C@H](NC(=O)[C@@H](c1ccccc1)N(C)C)c1ncc(-c2cnc(-c3ccc(-c4cnc([C@@H]5CCCN5C(=O)[C@@H](c5ccccc5)N(C)C)[nH]4)cc3)cn2)[nH]1 [Example 152j-18, (2R)-2-(dimethylamino)-N-((1S)-1-(5-(5-(4-(2-((2S)-1-((2R)-2-(dimethylamino)-2-phenylacetyl)-2-pyrrolidinyl)-1H-imidazol-5-yl)phenyl)-2-pyrazinyl)-1H-imidazol-2-yl)ethyl)-2-phenylacetamide], which EC50 is on record?
A: Its EC50 is 0.001 to 0.999 nM.
